Assay results: patent US20250228815A1, “LYOPHILIZED RESINIFERATOXIN” (Gruenenthal GmbH, priority 2024, published 2025)
Values after ≈ are worked out from the molar mass of the structure shown. Like-named read-outs stand apart in the source and are kept apart here.

What was measured:
[1] = maximum solubility of Resiniferatoxin by the equilibrium method (HPLC); type: physicochemical; settings: buffer medium with TPGS, 25 °C, pH 8, aqueous with cosolvent or surfactant or cyclodextrin, thermodynamic from solid, TPGS 3.5 mg/ml, n ≥ 3, read-out: RTX solubility
Description: The maximum solubility of Resiniferatoxin in various liquids was investigated by the equilibrium method.
Buffer media were saturated with an excess amount of Resiniferatoxin (characterized by undissolved API) and incubated at 25° C. while shaking (150 rpm) for 72 h. After incubation, 1 mL of each sample was centrifuged (10 min, 12045 RCF) and the supernatant was used to determine the amount of solubilized Resiniferatoxin via HPLC.

[2] = randomized, double-blind, placebo-controlled, single-dose trial of intraarticular Resiniferatoxin: analgesic effect (VAS pain on motion, WOMAC); type: in vivo, human
Description: (§1) The primary objective of this study was to compare the analgesic effects of single intraarticular injections of Resiniferatoxin (100 or 400 ng) compared to placebo, at 3 and 6 months postinjection, in participants with chronic osteoarthritic knee joint pain. Secondary objectives were to evaluate the analgesic effects of Resiniferatoxin versus placebo in terms of a responder analysis (percentage of subjects achieving ≥50% or ≥70% reduction in visual analog scale pain score) and changes in Western Ontario and McMaster Universities Arthritis Index (WOMAC) total and subscale scores (pain, physical function and stiffness). Safety and injection site pain were also evaluated.
(§2) The study was conducted as a randomized, double-blind, placebo-controlled, single-dose trial of Resiniferatoxin. Eligible patients were aged 40 to 80 years with radiographic knee osteoarthritis (Kellgren-Lawrence Grade 2-4 in the last 3 years) and a baseline visual analog scale (0-100 mm) pain score ≥40 mm on motion in the target knee, with or without pain medication. 67 subjects were randomized to treatment with either Resiniferatoxin 100 ng (n=24) or 400 ng (n=23), or placebo (n=20), administered intraarticularly into the index knee. Intraarticular Ropivacaine (5 ml, 0.5%) was administered 15 mins before investigational medicinal product. Visual analog scale scores were used to evaluate pain on motion as the average of the last 2 days in a target knee between baseline and at 3 and 6 months post injection. Injection site pain was rated (visual analog scale) from baseline (−0.5 h) up to 3 h post intraarticular injections.
Data values plotted as mean±standard error of mean, offset in X for clarity. ▴ Placebo (n=20); ▪ Resiniferatoxin 100 ng (n=24); ● Resiniferatoxin 400 ng (n=23).

[3] = same trial: safety, treatment emergent adverse events and injection site pain; type: in vivo, human; settings: for subjects with severe adverse events: none related to investigational medicinal product
Description: as §1, §2

[4] = cited from earlier work
[5] = single intraarticular 100 ng or 400 ng

## C=C(C)[C@]12C[C@@H](C)[C@@]34O[C@](Cc5ccccc5)(O[C@@H]1[C@@H]3C=C(COC(=O)Cc1ccc(O)c(OC)c1)C[C@]1(O)C(=O)C(C)=C[C@@H]41)O2 [RTX]
[1]; Ex. 5-1: no ethanol, NaCl 8.58, CaCl2 0.2, KCl 0.1, trometamol 0.4 mg/ml, pH 8.0, mean ± SD
  solubility at 72 h: 333 ± 100 µg/mL (≈ 530 µM)
[1]; Ex. 5-2: ethanol 39.44 mg/ml, NaCl 8.58, CaCl2 0.58, KCl 0.3, trometamol 1.22 mg/ml, pH 8.0, mean ± SD
  solubility at 72 h: 630 ± 38 µg/mL (≈ 1000 µM)
[1]; Ex. 5-3: ethanol 39.44 mg/ml, mannitol 14.9 mg/ml, salts as Ex. 5-2, pH 8.0, mean ± SD
  solubility at 72 h: 336 ± 53 µg/mL
[1]; Ex. 5-4: no ethanol, NaCl 8.58, CaCl2 0.58, KCl 0.3, trometamol 1.22 mg/ml, pH 8.0, mean ± SD
  solubility at 72 h: 317 ± 75 µg/mL (≈ 504 µM)

## C=C(C)[C@]12C[C@@H](C)[C@@]34O[C@](Cc5ccccc5)(O[C@@H]1[C@@H]3C=C(COC(=O)Cc1ccc(O)c(OC)c1)C[C@]1(O)C(=O)C(C)=C[C@@H]41)O2 [Resiniferatoxin, 4-hydroxy-3-methoxy-benzeneacetic acid, [(2S,3aR,3bS,6aR,9aR,9bR, 10R,11aR)-3a,3b,6,6a,9a,10,11,11a-octahydro-6a-hydroxy-8,10-dimethyl-11a-(1-methylethenyl)-7-oxo-2-(phenylmethyl)-7H-2,9b-epoxyazuleno[5,4-e]-1,3-benzodioxol-5-yl]methyl ester]
[2]; 100 ng and 400 ng, at both 3 and 6 months
  reduction in WOMAC total and subscale scores (pain, physical function and stiffness) compared to placebo: greater reduction
[2]; 100 ng or 400 ng intraarticular
  pain reduction compared to placebo: greater pain reduction
[2]; intention-to-treat population
  first trial visit at which reduction in VAS pain on motion was observed: 8 days
  last trial visit until which the effect lasted: 6 month
[2]; [5]
  analgesic onset after administration: within one week
  duration for which analgesia was evident during follow-up: at least 3 months
[3]; Resiniferatoxin 100 ng
  subjects with severe adverse events: 2 subjects
[3]; Resiniferatoxin 400 ng
  subjects with severe adverse events: 3 subjects
[3]; highly variable across treatment groups
  injection site pain (procedural pain) compared to placebo: generally higher
[3]; intraarticular injection, moderate-severe intensity in some subjects
  time of peak injection site pain post-injection: around 0.5 h
[3]; post intraarticular injection
  injection site pain, return to baseline: ≤ 3 h
[3]; [5]
  safety profile and tolerability: good safety profile
[4]; 5 μg, 12.5 μg, 20 μg and 30 μg cohorts, preliminary
  efficacy: Preliminary efficacy was also observed
[4]; onetime intraarticular injection up to 30 μg
  safety: demonstrated safety
